Experimental data from US20250188422A1, “INDUCED TOTIPOTENT POTENTIAL STEM CELLS, METHODS OF MAKING AND USING” (Peking University, priority 2022, published 2025).

Experiments:
TPS cells = assay: Culture of TPS cells without CHIR 99021; format: cell-based, mouse
Procedure: All cell lines were cultured under 20% 02 and 5% C02 at 37° C. Mouse TPS cells were cultured in 4S medium contained N2B27 basal medium [50% DMEM/F12 (Gibco, 11330-032), 50% Neurobasal (Gibco, 21103-049), 0.5% N2 supplement (Gibco, 17502-048), 1% B27 supplement (Gibco, 12587-010), 1% GlutaMAX (Gibco, 35050-061), 1% nonessential amino acids (Gibco, 11140-050)] which promoted cell proliferation, or 1640 basal medium [RPMI Medium 1640 basic (Gibco, 22400-089), 0.5% N2 supplement (Gibco, 17502-048), 1% B27 supplement (Gibco, 12587-010), 1% GlutaMAX (Gibco, 35050-061), 1% nonessential amino acids (Gibco, 11140-050)] which enhanced totipotent molecular features, supplemented with 5% knockout serum replacement (Gibco, 10828-028), 0.2% sodium pyruvate (Gibco, 11360-070), 0.14% sodium DL-lactate solution (Sigma, L7900) and 0.1% Chemically Defined Lipid Concentrate (Gibco, 11905-031), VPA (50 μM; Selleck, S3944), CHIR-99021 (3 μM; Selleck, S1263), EPZ004777 (1 μM, Selleck, S7353) and CD1530 ([…]-0.5 μM; Tocris, 2554). Mouse TPS cells were cultured on mitomycin C inactivated mouse embryonic fibroblast cells (feeders, 3*10^4 cells per cm^2). The culture medium was changed every day. TPS cells were passaged every three days with 0.05% trypsin-EDTA (Gibco, 25300-062) and seeded at a split ratio ranging from 1:3 to 1:10. To generate TPS cells, EPS cells or ES cells were dissociated and cultured on feeders in 4S medium for the first three passages, EPS cells or ES cells need to seed at a lower split ratio 1:3 to improve cell viability. After five passages, TPS cells were generated for further experiments.
The total RNAs were isolated using the Direct-zol RNA Kits (ZYMO Research, R2052). RNA was converted to cDNA using TransScript FirstStrand cDNA Synthesis SuperMix (TransGen Biotech, AT311). Quantitative PCR analysis was conducted using the KAPA SYBR FAST qPCR Kit (KAPA Biosystems, KK4601) with the Bio RAD CFX Connect Real-Time System. The data were analyzed using the delta-delta CT method.
Next, we sought to analyze the role of CHIR 99021 in the induction and maintenance of TPS cells. […]

[1] = test system: 8-cell ICR diploid mouse embryos; assay: Chimeric assay of single-cell microinjection into 8-cell embryos; format: in vivo; conditions: omission of CHIR 99021
Procedure: Cells were digested by 0.05% trypsin-EDTA, and the digested cells were filtered through a 40 µm cell strainer, centrifuged at 1,200-1,500 rpm for 3 min at room temperature. Supernatant were removed and cells were suspended using culture medium with the addition of Y-27632 (10 μM; Tocris, 1254), and placed on the ice before injection. After being placed on ice, the digested cells should be injected in 1 h, otherwise, another batch of cells were digested for the remaining injections.
Single cells were microinjected into 8-cell ICR diploid mouse embryos. The injected embryos were cultured in the culture medium with Y-27632 (10 μM; Tocris, 1254) for the first 4 h. For the generation of chimeric blastocysts, the embryos were transferred into the KSOM medium (Merck, MR-106-D). For the generation of single-cell derived in vivo chimeric conceptuses, chimeric embryos were cultured into KSOM medium with Y-27632 (10 μM; Tocris, 1254) addition in a humidified incubator under 5% CO2 at 37° C. overnight. Injected embryos were transferred to uterine horns of 0.5 post coitum pseudo-pregnant females. Fetal tissues, yolk sacs, placentas were dissected from conceptuses at E7.5, E10.5, E13.5 or E17.5 developmental stages.

[2] = test system: EPS cells during TPS conversion; assay: Cell proliferation during conversion of EPS cells to TPS cells; format: cell-based, mouse; conditions: CHIR 99021 omitted from the cocktail during the conversion
Procedure: Mouse EPS cells and ES cells cultured in N2B27-LCDM medium or N2B27-2i/LIF medium for two days were used for TPS generation. Mouse EPS cells and ES cells were washed with DMEM/F12, then 0.05% trypsin-EDTA (Gibco, 25300-062) was added and incubated for 3 min, then DMEM (Gibco, 11965092) supplemented with 10% FBS (Hyclone, SH30070.03) was added. The cells were pipetted up and down several times into single cells. Cells were centrifuged and re-suspended in 4S medium contained N2B27 which promoted cell proliferation or RPMI Medium 1640 basic (Gibco, 22400-089) which enhanced totipotent molecular features supplemented with 5% knockout serum replacement (Gibco, 10828-028), 0.2% sodium pyruvate (Gibco, 11360-070), 0.14% sodium DL-lactate solution (Sigma, L7900) and 0.1% Chemically Defined Lipid Concentrate (Gibco, 11905-031), VPA (50 μM; Selleck, S3944), CHIR-99021, EPZ004777 (1 μM, Selleck, S7353) and CD1530 ([…]-0.5 μM; Tocris, 2554). […]
To identify small molecules that can induce totipotent features in mouse EPS cells, we used cell lines carrying a MERVL-TdTomato or a Zscan4-Emerald GFP reporter. […] These candidates were further evaluated using MERVL-tdTomato reporter cells and small molecules that can also induce MERVL-tdTomato were selected out for further determining their optimal dosage in activating Zscan4-Emerald and MERVL-tdTomato expression without inducing significant toxicity. […]

[3] = test system: Zscan4-Emerald GFP and MERVL-tdTomato reporter expression in mouse EPS cells; assay: Screen with Zscan4-Emerald GFP and MERVL-tdTomato reporter EPS cells; format: cell-based; conditions: for effect with CD1530 in inducing totipotent markers: combined with CD1530, EPS reporter cells, day 3
Procedure: Cells were gently digested into single cells using 0.05% trypsin-EDTA. Suspensions were filtered through a 40 µm cell strainer. Then, the samples were analyzed on CytoFLEX (Beckman Coulter). Data analysis was performed using CytExpert software.
To identify small molecules that can induce totipotent features in mouse EPS cells, we used cell lines carrying a MERVL-TdTomato or a Zscan4-Emerald GFP reporter. As the positive control, Dux overexpression was performed in these reporter cells (FIG. 6a-c). N2B27 medium was used for screening and Wnt signaling agonist CHIR 99021 was also added for promoting cell proliferation. In the primary screen, we focused on identifying small molecules that can increase the percentage of Zscan4-Emerald GFP+ cells, and identified more than 50 primary hits. These candidates were further evaluated using MERVL-tdTomato reporter cells and small molecules that can also induce MERVL-tdTomato were selected out for further determining their optimal dosage in activating Zscan4-Emerald and MERVL-tdTomato expression without inducing significant toxicity. […] Therefore, CHIR 99021 was included in the chemical cocktail.

SMILES: Cc1c[nH]c(-c2cnc(NCCNc3ccc(C#N)cn3)nc2-c2ccc(Cl)cc2Cl)n1 [CHIR 99021]
- requirement for the proliferation of TPS cells (TPS cells; omission of CHIR 99021, after further passaging): not required
- expression of totipotent marker genes in TPS cells (TPS cells; omission of CHIR 99021, after long-term culturing): not affected
- proliferation of TPS cells (TPS cells; omission of CHIR 99021, first few passages (about 3-5 passages)): reduced proliferation
- in vivo chimeric of TPS cells [1]: greatly reduce
- cell proliferation [2]: greatly reduced

SMILES: O=C(O)c1ccc(-c2ccc3cc(O)c(C45CC6CC(CC(C6)C4)C5)cc3c2)cc1 [CD1530]
- inducing Zscan4-GFP and MERVL-tdTomato expression ([3]; EPS reporter cells, N2B27 medium with CHIR 99021, after titration, compared with other screening hits): most effective

SMILES: CC(C)N(CCCNC(=O)Nc1ccc(C(C)(C)C)cc1)C[C@H]1O[C@@H](n2ccc3c(N)ncnc32)[C@H](O)[C@@H]1O [EPZ004777]
- effect with CD1530 in inducing totipotent markers [3]: synergistic effect

SMILES: CCCC(CCC)C(=O)O [VPA]
- effect with CD1530 in inducing totipotent markers [3]: synergistic effect
